Data set [1] deals with T1, S. aureus ATCC 29213 FabI (Staphylococcus aureus, UniProt Q6GI75).
T1 sequence (Q6GI75 1-256): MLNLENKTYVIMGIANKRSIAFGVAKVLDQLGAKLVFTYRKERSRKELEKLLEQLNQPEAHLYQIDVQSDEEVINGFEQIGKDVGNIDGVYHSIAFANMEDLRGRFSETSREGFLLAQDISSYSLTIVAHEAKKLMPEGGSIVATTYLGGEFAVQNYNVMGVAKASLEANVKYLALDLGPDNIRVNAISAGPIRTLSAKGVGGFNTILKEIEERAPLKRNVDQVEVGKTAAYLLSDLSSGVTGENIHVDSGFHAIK
Description: Staphylococcus aureus FabI enzyme inhibition assay. Format: biochemical. Conditions: 30 minutes at room temperature, NADH consumption. The protocol:
FabI enzyme inhibition assays were carried out in half-area, 384-well microtitre plates. Compounds were evaluated in 40-μl assay mixtures containing 100 mM NaADA, pH 6.5 (ADA=N-[2-acetamido]-2iminodiacetic acid), 250 μM crotonoyl-CoA, 625 μM NADH and 50 μg/ml S. aureus ATCC 29213 FabI Inhibitors were typically varied over the range of 50 to 0.39 μM. The reaction mixtures were incubated for 30 minutes at room temperature and the reaction was stopped by adding 200 mM Tris buffer (pH 9.0) to create a pH-shift. The consumption of NADH was monitored by measuring the change in absorbance at […]. By comparing sample readings to those of negative (absence of compound) and positive (absence of enzyme) controls, the percent inhibition of enzymatic activity of the compounds was determined. A best-fit curve is fitted by a minimum of squares method. From this an IC50-value (expressed in μg/ml), resulting in 50% inhibition of enzymatic activity, was obtained.

The test system of data set [2] is Staphylococcus aureus ATCC 29213. The data set can be described thus: Antibacterial susceptibility testing: IC90 determination (STA). It is filed as cell-based. Conditions: ATCC29213, S. aureus ATCC 29213, 90% inhibitory concentration for bacterial growth, read-out: STA (361.159) IC90. How it is done:
(§1) The following bacteria were used: Staphylococcus aureus ATCC 29213, methicillin-resistant Staphylococcus aureus (MRSA) ATCC 700788 and Escherichia coli ATCC 35218. The bacteria used in this study were grown overnight in flasks containing 100 ml Mueller-Hinton broth (Difco cat. nr. 0757-17) in sterile de-ionized water, with shaking, at 37° C. Stocks were store at −70° C. until use.
(§2) Bacteria were incubated on a tryptic soy agar plate containing 5% sheep blood (Becton Dickinson cat. nr. 254053) for 18-24 hours at 35° C. in aerobic conditions (first passage). For the second passage, fresh Mueller-Hinton broth is inoculated with 5-10 colonies and grown overnight at 35° C. until turbidity (reaching log-phase) in aerobic conditions is reached. The bacterial suspension is then adjusted to 0.5 McFarland density and further diluted 1:100 in Mueller Hinton broth medium. This is used as inoculum.
(§3) MIC assays were performed by the broth microdilution method in a 96-well format (flat-bottom microtitre plates) with a final volume of 0.1 ml Mueller Hinton broth containing two-fold serial dilutions of compounds and inoculated with 5×10^5 CFU/ml of bacteria (standard inoculum size according to CLSI guidelines). Inhibitors are typically varied over the range of 63 to 0.49 μM. The final DMSO concentration in the assay was 1.25% (maximum tolerable DMSO concentration=6%). In the assays where the effect of human serum on the activity of the compounds against S. aureus was tested, human serum was added at a final concentration of 10%. The plates were incubated at 35° C. for 16-20 hours. At the end of incubation the bacterial growth was quantified fluorometrically. For this, resazurin was added to all wells and the plates were re-incubated. The incubation time is dependent on the type of bacteria. A change in color from blue to pink indicated the growth of bacteria. The fluorescence was read in computer-controlled fluorometer (Fluoroskan Ascent FL, Labsystems) at an excitation wavelength 540 nm and an emission wavelength of 590 nm. The % growth inhibition achieved by the compounds was calculated according to standard methods. The IC90 (expressed in μg/ml) was defined as the 90% inhibitory concentration for bacterial growth. A panel of reference compounds were simultaneously tested for QC approval.

Another data set relates to S. aureus. Description: Antibacterial susceptibility testing: IC90 determination with 10% human serum (STA + 10% HS). It is filed as cell-based. Conditions: Staphylococcus aureus; S. aureus with human serum at final concentration of 10%; read-out: STA + 10% HS (361.169) IC90. The protocol: as §1, §2, §3
The results are depicted in the table D2 below (STA+10% HS).

The nature of data set [3]: Cytotoxicity MTT assay (TOX HELAM). It is filed as cell-based. Conditions: human, HelaM cells, read-out: TOX HELAM (222.125) CC50. The protocol:
Cytotoxicity of the compounds was evaluated using the MTT assay. Human HelaM cells grown in 96-well plates were exposed to serial dilutions of the tested compounds (final volume of 0.2 ml) and incubated for 72 hours at 37° C. and 5% CO2. Inhibitors are typically varied over the range of 25 to 0.8 μM. The final DMSO concentration in the assay is 0.5%. MTT (3-(4,5-Dimethylthiazol-2-yl)-2,5-diphenyltetrazolium bromide, a tetrazole) was added and reduced to purple formazan only in living cells. Solubilization of the formazan crystals was achieved by adding 100 μl 2-propanol. Cell viability was determined by measuring the absorbance of the reduced formazan, giving a purple color, at 540 nm and 690 nm. The absorbance measured at 690 nm was automatically subtracted from the absorbance at 540 nm, to eliminate the effects of non-specific absorption. The percent cytotoxicity achieved by the compounds was calculated according to standard methods. Cytotoxicity is reported as CC50, the concentration that causes a 50% reduction in cell viability.
The results are depicted in the table D2 below (TOX HELAM).
In general terms: Formazan colour is commonly taken as a measure of viable cells.

The nature of data set [4]: In vivo pharmacokinetic and oral bioavailability. Conditions: male Swiss mice; for AUC(0-inf) / C0 / half-life / clearance / bioavailability / Tmax / Cmax: mouse, plasma; for C0 / Cmax: 20% HP-β-CD solution; for half-life: read-out: Half life (t1/2) (converted); for clearance: read-out: Plasma clearance Cl (converted); for bioavailability: p.o. 10 mg/kg vs i.v. 2.5 mg/kg. The protocol: The in vivo pharmacokinetics and oral bioavailability of the compound of the examples was/is investigated in male Swiss mice (fed) following single intravenous (i.v.) bolus and oral (p.o.) administration. For the i.v. and p.o. solution formulations, the compound was/is dissolved in a 20% HP-β-CD solution. The pH of the formulations was/is around pH 4. All i.v. formulations were isotonic.

The next data set concerns S. aureus ATCC 29213. Description: MIC broth microdilution (CLSI), S. aureus ATCC 29213. It is filed as cell-based. Conditions: Staphylococcus aureus, ATCC 29213 / MSSA, reference strain MSSA. How it is done: (§4) Minimum Inhibitory Concentrations (MICs) were determined in accordance with the Clinical and Laboratory Standards Institute (CLSI) methodology against aerobic bacteria (CLSI M07-A8) (see Clinical and Laboratory Standards Institute. 2009. Methods for dilution antimicrobial susceptibility tests for bacteria that grow aerobically. CLSI document M07-A8, Vol. 29, No. 2.) by the broth microdilution method with cation-adjusted Mueller-Hinton broth (CA-MHB) medium for the majority of organisms, except for Haemophilus influenza, where Haemophilis test medium (HTM) broth was used. Descriptions of the individual organisms can be found in the table. Where possible, ATCC standard strains were tested.
(§5) The inoculum density for the susceptibility testing was standardized to give a final inoculum of approximately 5×10^5 CFU/mL.
(§6) Stock solutions of the compounds were prepared in DMSO at concentrations of 1 mg/mL. Linezolid was prepared in DMSO at a concentration of 2 mg/mL. Stock solutions of all compounds were diluted into CA-MHB to give a range of two-fold dilutions, depending upon the sensitivity of the organism being tested.

The subject of the next data set is S. aureus ATCC 43300. Description: MIC broth microdilution (CLSI), S. aureus ATCC 43300. It is filed as cell-based. Conditions: Staphylococcus aureus, ATCC 43300 / MRSA, reference strain MRSA. How it is done:
as §4, §5, §6

In another data set the test system is E. coli tolC mutant. Description: MIC broth microdilution (CLSI), E. coli tolC mutant. It is filed as cell-based. Conditions: Escherichia coli. How it is done:
as §4, §5, §6
In general terms: Broth dilution looks for growth in wells or tubes with falling amounts of substance.

Another data set deals with E. coli ATCC 25922. Description: MIC broth microdilution (CLSI), E. coli ATCC 25922. Format: cell-based. Conditions: Escherichia coli, ATCC25922. How it is done:
as §4, §5, §6

A further data set has as its system H. influenza ATCC 49247. The data set can be described thus: MIC broth microdilution (CLSI), H. influenza ATCC 49247. Conditions: Haemophilus influenzae, ATCC49247, HTM broth. Format: cell-based. How it is done:
as §4, §5, §6

Values after ≈ are worked out from the molar mass of the structure shown. Where two headings read alike, the source gives them in different places.

For orientation: IC50 means the midpoint of a concentration-inhibition curve. The term IC90 denotes the concentration at which the effect reaches the 90% level. Usually CC50 stands for the concentration that lowers cell viability or growth by half. In general, AUC(0-inf) refers to total exposure, with the tail of the curve extrapolated. High values mean more exposure, low ones less exposure. The bioavailability is dose-corrected exposure relative to a reference, in per cent. Higher therefore signals much systemic uptake. The Tmax is the time from dosing to the highest level. Broadly, the Cmax is the peak of the concentration-time curve. In data set [1], `COc1ccccc1C1=CCCN(C(=O)/C=C/c2cnc3c(c2)CCC(=O)N3)CC1` [Co. No. 10] showed a 50% inhibitory concentration (IC50) of 867 nM. Besides, the IC90 in data set [2] was 0.09 µg/mL (≈ 0.223 µM). Besides, the IC90 in the data set with S. aureus turned out to be 0.2 µg/mL. Moreover, the half-maximal cytotoxic concentration (CC50) at 72 h in data set [3] was more than 10.1 µg/mL. The same compound came in with a Vdz in data set [4] (i.v. 2.5 mg/kg) of 2.0 L/kg. In addition, in [4] (iv, i.v. 2.5 mg/kg), the AUC(0-inf) is 2160 ng·h/mL, the C0 came to 3400 ng/mL, the half-life was 1.2 h and the clearance is 20 mL/min/kg. Moreover, in data set [4] (po), the bioavailability was determined as 78%. Besides, in data set [4] (po, p.o. 10 mg/kg), the AUC(0-inf) was determined as 7090 ng·h/mL, the Tmax came out at 0.5 h, the Cmax was 3740 ng/mL and the half-life was 2 h.
As usually defined, the melting point is the temperature of the solid-liquid transition. As to `O=C1CCc2cc(/C=C/C(=O)N3CCCN(c4ccccc4)CC3)cnc2N1` [Co. No. 11], the melting point came out at 156 °C. This compound gave an IC50 in data set [1] of 1040 nM. The IC90 in data set [2] is 3.24 µg/mL (≈ 8.61 µM). The IC90 in the data set on S. aureus was found to be 5.76 µg/mL. The CC50 at 72 h in data set [3] was more than 9.46 µg/mL.
In data set [1], `Cc1ccc(F)cc1C1=CCN(C(=O)/C=C/c2cnc3c(c2)CCC(=O)N3)CCC1` [Co. No. 14] gave a concentration for half-maximal inhibition (IC50) of 863 nM. In addition, in data set [2], the IC90 is 1.54 µg/mL (≈ 3.8 µM). Also, in the data set on S. aureus, the IC90 was 3.74 µg/mL. For the same compound, the CC50 at 72 h in data set [3] turned out to be 9.73 µg/mL (≈ 24 µM). The same compound showed a Vdz in [4] (i.v. 2.5 mg/kg) of 1.0 L/kg. Further, in [4] (iv, i.v. 2.5 mg/kg), the total exposure AUC(0-inf) turned out to be 6700 ng·h/mL, the C0 is 4550 ng/mL, the half-life was 2 h and the clearance was 6 mL/min/kg. The compound also yielded a bioavailability in data set [4] (po) of 90%. Also, in data set [4] (po, p.o. 10 mg/kg), the AUC(0-inf) turned out to be 23800 ng·h/mL, the Tmax worked out at 1 h, the Cmax was found to be 3930 ng/mL and the half-life is 2.8 h.
In the case of `O=C1CCc2cc(/C=C/C(=O)N3CCC=C(c4cccc(Cl)c4)CC3)cnc2N1` [Co. No. 19], the half-maximal inhibitory concentration (IC50) in [1] is 1050 nM. In addition, the values for the IC90 (in data set [2]; in the data set on S. aureus) were 0.35 µg/mL (≈ 0.858 µM) and 1.38 µg/mL, respectively. For the same compound, the CC50 at 72 h in data set [3] was more than 20.4 µg/mL. The MIC90 against S. aureus ATCC 29213 was 0.125 µg/mL (≈ 0.306 µM); against S. aureus ATCC 43300, 0.25 µg/mL (≈ 0.613 µM); against E. coli tolC mutant, 1 µg/mL (≈ 2.45 µM); with E. coli ATCC 25922, more than 8 µg/mL; in the data set with H. influenza ATCC 49247, more than 8 µg/mL.

Source of the values: patent US9394295B2, “Antibacterial homopiperidinyl substituted 3,4-dihydro-1H-[1,8]naphthyridinones” (Janssen Sciences Ireland UC, priority 2011, dated 2016).
